Values after ≈ are worked out from the molar mass of the structure shown. One block for each molecule: values may come before it.
Legend:
MAO-A = molecular target: T1, MAO-A (Homo sapiens, UniProt P21397); experiment: MAO-A inhibition, standard in-vitro assay, human liver enzyme expressed in yeast; assay type: biochemical; conditions: read-out: Ki value against MAO-A
T1 construct: made in house; host or cells: yeast
T1 sequence (P21397 1-527): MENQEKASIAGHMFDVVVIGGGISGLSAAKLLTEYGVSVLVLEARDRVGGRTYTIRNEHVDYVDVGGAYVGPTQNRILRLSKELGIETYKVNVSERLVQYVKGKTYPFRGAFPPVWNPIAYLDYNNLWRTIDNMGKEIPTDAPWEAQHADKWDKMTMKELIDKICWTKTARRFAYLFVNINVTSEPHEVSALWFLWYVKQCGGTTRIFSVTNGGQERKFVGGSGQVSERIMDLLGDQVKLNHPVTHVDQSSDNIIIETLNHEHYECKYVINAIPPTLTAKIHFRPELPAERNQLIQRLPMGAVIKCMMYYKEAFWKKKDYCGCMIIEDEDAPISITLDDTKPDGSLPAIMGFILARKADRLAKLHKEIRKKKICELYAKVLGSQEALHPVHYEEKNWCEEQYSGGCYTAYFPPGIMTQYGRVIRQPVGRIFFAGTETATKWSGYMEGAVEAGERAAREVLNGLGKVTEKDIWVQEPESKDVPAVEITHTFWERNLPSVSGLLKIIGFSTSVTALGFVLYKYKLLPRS
Experimental: The activity of the compounds of the invention against MAO-A was tested using a standard in-vitro assay based on human liver enzyme expressed in yeast as described in Biochem. Biophys. Res. Commun. 1991, 181, 1084-1088.

[1] = tested on: Staphylococcus aureus MSQS (methicillin sensitive and quinolone sensitive); experiment: MIC, agar dilution, Staphylococcus aureus MSQS; assay type: cell-based; conditions: inoculum 10^4 CFU/spot, 37° C., 24 hours
Experimental: (§1) The following results were obtained on a standard in-vitro test system. The activity is described in terms of the minimum inhibitory concentration (MIC) determined by the agar-dilution technique with an inoculum size of 10^4 CFU/spot. Typically, compounds are active in the range 0.01 to 256 μg/ml.
(§2) Staphylococci were tested on agar, using an inoculum of 10^4 CFU/spot and an incubation temperature of 37° C. for 24 hours—standard test conditions for the expression of methicillin resistance.

[2] = tested on: Staphylococcus aureus MRQR (methicillin resistant and quinolone resistant); experiment: MIC, agar dilution, Staphylococcus aureus MRQR; assay type: cell-based; conditions: inoculum 10^4 CFU/spot, 37° C., 24 hours
Experimental: as §1, §2

Streptococcus pneumoniae = experiment: MIC, agar dilution, Streptococcus pneumoniae; assay type: cell-based; conditions: agar with 5% defibrinated horse blood, 10^4 CFU/spot, 37° C., 5% carbon dioxide, 48 hours
Experimental: as §1
(§3) Streptococci and enterococci were tested on agar supplemented with 5% defibrinated horse blood, an inoculum of 10^4 CFU/spot and an incubation temperature of 37° C. in an atmosphere of 5% carbon dioxide for 48 hours—blood is required for the growth of some of the test organisms. Fastidious Gram negative organisms were tested in Mueller-Hinton broth, supplemented with hemin and NAD, grown aerobically for 24 hours at 37° C., and with an innoculum of 5×10^4 CFU/well.

Haemophilus influenzae = experiment: MIC, Haemophilus influenzae (fastidious Gram negative, broth); assay type: cell-based; conditions: Mueller-Hinton broth with hemin and NAD, 24 hours at 37° C., 5×10^4 CFU/well
Experimental: as §1, §3

Moraxella catarrhalis = experiment: MIC, Moraxella catarrhalis (fastidious Gram negative, broth); assay type: cell-based; conditions: Mueller-Hinton broth with hemin and NAD, 24 hours at 37° C., 5×10^4 CFU/well
Experimental: as §1, §3

[3] = tested on: Linezolid Resistant Streptococcus pneumoniae; experiment: MIC, agar dilution, Linezolid Resistant Streptococcus pneumoniae; assay type: cell-based; conditions: agar with 5% defibrinated horse blood, 10^4 CFU/spot, 37° C., 5% carbon dioxide, 48 hours
Experimental: as §1, §3

SMILES: O=C1O[C@@H](Cn2ccnn2)CN1c1ccc(-c2ccc(C3=NO[C@H](CN4CCOCC4)C3)nc2)c(F)c1 [Example 3, (5R)-3-(3-Fluoro-4-{6-[(5S)-5-(morpholin-4-ylmethyl)-4,5-dihydroisoxazol-3-yl]pyridin-3-yl}phenyl)-5-(1H-1,2,3-triazol-1-ylmethyl)-1,3-oxazolidin-2-one]
MIC [1]: 0.5 µg/mL (≈ 0.985 µM)
MIC [2]: 0.5 µg/mL (≈ 0.985 µM)
MIC (Streptococcus pneumoniae): 0.13 µg/mL (≈ 0.256 µM)
MIC (Haemophilus influenzae): 8 µg/mL (≈ 15.8 µM)
MIC (Moraxella catarrhalis): 1 µg/mL (≈ 1.97 µM)
MIC [3]: 1 µg/mL (≈ 1.97 µM)
Ki (MAO-A): > 22000 nM
melting point: 230 °C

SMILES: CC(C)(C)OC(=O)NC[C@@H]1CC(c2ccc(-c3ccc(N4C[C@H](Cn5ccnn5)OC4=O)cc3F)cn2)=NO1 [Example 15, tert-Butyl {[(5S)-3-(5-{2-fluoro-4-[(5R)-2-oxo-5-(1H-1,2,3-triazol-1-ylmethyl)-1,3-oxazolidin-3-yl]phenyl}pyridin-2-yl)-4,5-dihydroisoxazol-5-yl]methyl}carbamate]
melting point: 228 to 230 °C

SMILES: N[C@@H](CC(=O)O)C(=O)NC[C@@H]1CC(c2ccc(-c3ccc(N4C[C@H](Cn5ccnn5)OC4=O)cc3F)cn2)=NO1 [Example 28, N^1-{[(5S)-3-(5-{2-Fluoro-4-[(5R)-2-oxo-5-(1H-1,2,3-triazol-1-ylmethyl)-1,3-oxazolidin-3-yl]phenyl}pyridin-2-yl)-4,5-dihydroisoxazol-5-yl]methyl}-L-α-asparagine]
melting point: 224 to 226 °C

SMILES: O=C1O[C@@H](Cn2ccnn2)CN1c1ccc(-c2ccc(C3=NO[C@H](CN4CC[S+]([O-])CC4)C3)nc2)c(F)c1 [Example 8, (5R)-3-[3-Fluoro-4-(6-{(5S)-5-[(1-oxidothiomorpholin-4-yl)methyl]-4,5-dihydroisoxazol-3-yl}pyridin-3-yl)phenyl]-5-(1H-1,2,3-triazol-1-ylmethyl)-1,3-oxazolidin-2-one]
melting point: 218 to 220 °C

Now from value to molecule:

Ki (MAO-A): 350 nM
melting point: 119 to 122 °C
SMILES: NC[C@@H]1CC(c2ccc(-c3ccc(N4C[C@H](Cn5ccnn5)OC4=O)cc3F)cn2)=NO1 [Reference Example 16, (5R)-3-(4-{6-[(5S)-5-(Aminomethyl)-4,5-dihydroisoxazol-3-yl]pyridin-3-yl}-3-fluorophenyl)-5-(1H-1,2,3-triazol-1-ylmethyl)-1,3-oxazolidin-2-one]

melting point: 239 to 242 °C
SMILES: O=C1O[C@@H](Cn2ccnn2)CN1c1ccc(-c2ccc(C3=NO[C@H](Cn4ccnc4)C3)nc2)c(F)c1 [Example 26, (5R)-3-(3-Fluoro-4-{6-[(5S)-5-(1H-imidazol-1-ylmethyl)-4,5-dihydroisoxazol-3-yl]pyridin-3-yl}phenyl)-5-(1H-1,2,3-triazol-1-ylmethyl)-1,3-oxazolidin-2-one]

melting point: 212 to 218 °C
SMILES: CN(CC(=O)O)C[C@@H]1CC(c2ccc(-c3ccc(N4C[C@H](Cn5ccnn5)OC4=O)cc3F)cn2)=NO1 [Example 19, N-{[(5S)-3-(5-{2-Fluoro-4-[(5R)-2-oxo-5-(1H-1,2,3-triazol-1-ylmethyl)-1,3-oxazolidin-3-yl]phenyl}pyridin-2-yl)-4,5-dihydroisoxazol-5-yl]methyl}-N-methylglycine]

Source: patent US20080064689A1, “3-[4-(6-Pyridin-3-Yl)-3-Phenyl] -5-(1H-1,2,3-Triazol-1-Ylmethyl)-1,3-Oxazolidin-2-Ones as Antibacterial Agents” (AstraZeneca AB, priority 2004, published 2008)
